Experiment [1] deals with mu opioid receptor (Homo sapiens, UniProt P35372). Briefly: Radioligand binding assay, [3H]DAMGO, membranes of CHO cells transfected with human mu opioid receptor. The settings on record: CHO cell membranes, read-out: Receptor Binding Ki (nM) μ.
Experiment [2] addresses kappa opioid receptor (Homo sapiens, UniProt P41145). Briefly: Radioligand binding assay, [3H]U69593, membranes of CHO cells transfected with human kappa opioid receptor. The settings on record: CHO cell membranes, read-out: Receptor Binding Ki (nM) κ.

Like-named read-outs stand apart in the source and are kept apart here.

Chain of mu opioid receptor (P35372 whole entry): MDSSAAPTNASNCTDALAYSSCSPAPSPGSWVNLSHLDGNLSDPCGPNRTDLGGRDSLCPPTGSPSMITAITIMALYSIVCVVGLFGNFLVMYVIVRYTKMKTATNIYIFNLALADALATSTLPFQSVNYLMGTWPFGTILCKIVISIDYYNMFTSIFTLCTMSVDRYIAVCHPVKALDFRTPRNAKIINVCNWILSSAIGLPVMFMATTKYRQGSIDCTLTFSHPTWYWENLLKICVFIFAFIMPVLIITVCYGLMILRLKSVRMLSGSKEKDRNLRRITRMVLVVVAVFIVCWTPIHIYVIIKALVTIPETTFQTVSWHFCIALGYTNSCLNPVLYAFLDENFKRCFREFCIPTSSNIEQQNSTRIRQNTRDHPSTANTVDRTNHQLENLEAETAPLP
Chain of kappa opioid receptor (P41145 whole entry): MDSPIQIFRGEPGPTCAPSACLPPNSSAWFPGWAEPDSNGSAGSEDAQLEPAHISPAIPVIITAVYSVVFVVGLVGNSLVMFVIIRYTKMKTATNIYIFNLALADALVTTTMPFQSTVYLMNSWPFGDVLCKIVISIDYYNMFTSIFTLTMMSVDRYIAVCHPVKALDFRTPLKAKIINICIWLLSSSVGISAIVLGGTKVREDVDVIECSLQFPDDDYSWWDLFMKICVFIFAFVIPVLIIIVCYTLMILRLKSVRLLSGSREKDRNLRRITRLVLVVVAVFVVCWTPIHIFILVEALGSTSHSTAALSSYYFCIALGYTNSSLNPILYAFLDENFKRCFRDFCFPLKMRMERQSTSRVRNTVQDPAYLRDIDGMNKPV

Take `CC(C)[C@H]1CC[C@@H](N2CCC(n3ccc4ccccc43)CC2)CC1` [Compound 61, syn-1-(1-(4-isopropylcyclohexyl)piperidin-4-yl)-1H-indole]: the inhibitory constant (Ki) in experiment [1] (Compounds of Formula (II)) and in experiment [2] (Compounds of Formula (II)) was 150 to 5000 nM in each case.

On to `CC(C)[C@H]1CC[C@@H](N2CCC(n3cc(CNCCO)c4ccccc43)CC2)CC1` [Compound 70], for which the Ki in experiment [1] (Compounds of Formula (II)) and in experiment [2] (Compounds of Formula (II)) was 150 to 5000 nM in each case.

As to `CC(C)[C@H]1CC[C@@H](N2CCC(n3cc(CNC(=O)C(N)CCCNC(=N)N)c4ccccc43)CC2)CC1` (stereo partly shown) [Compound 80], the Ki in experiment [1] (Compounds of Formula (II)) and in experiment [2] (Compounds of Formula (II)) was 150 to 5000 nM in each case.

Consider `CCOC(=O)NCCc1cn(C2CCN([C@H]3CC[C@@H](C(C)C)CC3)CC2)c2ccccc12` [Compound 94], for which the Ki (usually the dissociation constant of the complex between target and ligand, obtained from inhibition or displacement) in experiment [1] (Compounds of Formula (II)) was 150 to 5000 nM; in experiment [2] (Compounds of Formula (II)), over 5000 nM.

Consider `CC(C)[C@H]1CC[C@@H](N2CCC(n3cc(CN(C)C)c4ccccc43)CC2)CC1` [Compound 84], for which the inhibition constant Ki in experiment [1] (Compounds of Formula (II)) is 150 to 5000 nM.

In the case of `CC(C)[C@H]1CC[C@@H](N2CCC(n3cc(CN4CCC(O)CC4)c4ccccc43)CC2)CC1` [Compound 68], the Ki in experiment [1] (Compounds of Formula (II)) was over 5000 nM; in experiment [2] (Compounds of Formula (II)) it was 150 to 5000 nM.

In the case of `CC(C)[C@H]1CC[C@@H](N2CCC(n3cc(CN4CCC(N)CC4)c4ccccc43)CC2)CC1` [Compound 69, 1-((1-(1-(cis-4-isopropylcyclohexyl)piperidin-4-yl)-1H-indol-3-yl)methyl)piperidin-4-amine], the Ki in experiment [1] (Compounds of Formula (II)) and in experiment [2] (Compounds of Formula (II)) was 150 to 5000 nM in each case.

Consider `CC(C)[C@H]1CC[C@@H](N2CCC(n3cc(CCCNC(N)=S)c4ccccc43)CC2)CC1` [Compound 96], for which the inhibitory constant (Ki) in experiment [1] (Compounds of Formula (II)) and in experiment [2] (Compounds of Formula (II)) was 150 to 5000 nM in each case.

As to `CC(C)[C@H]1CC[C@@H](N2CCC3(CC2)C(=O)N(CC(N)=O)Cc2cc(-c4ccccc4)ccc23)CC1` [Compound 345, 2-(1′-(cis-4-isopropyl-cyclohexyl)-3-oxo-7-phenyl-1H-spiro [isoquinoline-4,4′-piperidin]-2(3H)-yl) acetamide], the Ki in experiment [1] (Compounds of Formula (IV)) and in experiment [2] (Compounds of Formula (IV)) was 150 to 5000 nM each time.

In the case of `CC(C)[C@H]1CC[C@@H](N2CCC(n3cc(CCN)c4ccccc43)CC2)CC1` [Compound 86, 2-(1-(1-(cis-4-isopropylcyclohexyl)piperidin-4-yl)-1H-indol-3-yl)ethan-1-amine], the inhibitory constant (Ki) in experiment [1] (Compounds of Formula (II)) and in experiment [2] (Compounds of Formula (II)) was 150 to 5000 nM in each case.

With `CC(C)[C@H]1CC[C@@H](N2CCC(n3cc(CN4CC[C@@H](O)C4)c4ccccc43)CC2)CC1` [Compound 66, (R)-1-((1-(1-(cis-4-isopropylcyclohexyl)piperidin-4-yl)-1H-indol-3-yl)methyl)pyrrolin-3-ol], the inhibition constant (Ki) was 150 to 5000 nM in experiment [1] (Compounds of Formula (II)) and over 5000 nM in experiment [2] (Compounds of Formula (II)).

For the compound `CCNCC(=O)NCc1cn(C2CCN([C@H]3CC[C@@H](C(C)C)CC3)CC2)c2ccccc12` [Compound 76], the inhibition constant (Ki) in experiment [1] (Compounds of Formula (II)) and in experiment [2] (Compounds of Formula (II)) was 150 to 5000 nM in each case.

Consider `CC(C)[C@H]1CC[C@@H](N2CCC(n3cc(CN4CC(O)C4)c4ccccc43)CC2)CC1` [Compound 67, 1-((1-(1-(cis-4-isopropylcyclohexyl)piperidin-4-yl)-1H-indol-3-yl)methyl)azetidin-3-ol], for which the Ki in experiment [1] (Compounds of Formula (II)) and in experiment [2] (Compounds of Formula (II)) was over 5000 nM each time.

(Values after USRE49825E1, “Piperidinyl nociceptin receptor compounds” (Astraea Therapeutics, LLC, priority 2015, dated 2024).)
